From US6723699B1, “Treating disorders by application of insulin-like growth factors and analogs” (Cephalon, Inc., priority 1989, dated 2004)

How the values were obtained:
motoneurons = experiment: Motoneuron survival in ovo (developmentally regulated motoneuron death); assay type: in vivo, chick; conditions: 5 μg/egg daily onto chorioallantoic membrane, E6 to E9, counted E10
Text: In the spinal cord, as well as in other regions of the nervous system, neurons are over-produced during development, and undergo a process of naturally occurring cell death prior to […] (reviewed in Oppenheim, R. W. 1991, Annu Rev. Neurosci. 14:453-501). During this period, approximately 50% of the motoneurons degenerate and die. Certain neurotrophic agents applied exogenously during this period prevent or retard this form of neuronal death (e.g., partially purified muscle extracts and ciliary neurotrophic factor reduce motor neuron death in chick embryos (McManaman et al., 1990, Neuron 4:891-898; Oppenheim et al. 1991, Science 25:1616-1617).
The IGFs were administered daily onto chorioallantoic membrane (5 μg/egg in a volume of 50 μl) from embryonic day E6 to E9 through a small window cut into the shell of the egg. Control embryos received an equal volume of vehicle (phosphate buffered saline) alone on E10, the embryos were removed, sacrificed and the spinal cords sectioned. Motoneurons (identified morphologically in silver-stained sections) were counted in serial sections from both treated and control embryos. […] The differences between effects produced by the different IGFs used were not statistically significant (Student t test […]).

[1] = system: 14-day embryonic rat spinal cord neurons; experiment: Choline acetyltransferase activity in dissociated embryonic rat spinal cord neuron cultures; assay type: cell-based; conditions: 48 hr incubation
Procedure: The activity of IGF-I, IGF-II, or synthetic peptide derivatives of these molecules was assayed on dissociated cultures of 14-day embryonic rat spinal cord neurons. The spinal cord neurons were obtained from trypsin-dissociated spinal cords, plated, incubated with peptides, and subsequently (48 hr later) assayed for choline acetyltransferase activity as described by […] et al., Dev. Biol. 125:311-320 (1988).

[2] = system: 14.5 day embryonic rat spinal cord neurons; experiment: Choline acetyltransferase activity in 14.5 day embryonic rat spinal cord neurons, serum-free; assay type: cell-based; conditions: serum-free and insulin-free N2 medium, 48 hr
Procedure: The activity of IGF-I, IGF-II and IGF-III was assayed on dissociated cultures of 14.5 day embryonic rat spinal cord neurons. The spinal cords were removed from embryos and dissociated in 0.05% trypsin in Dulbecco's Phosphate Buffered Saline (DPBS). Dissociated cells were seeded onto poly-1-ornithine substrates in 96 well microtiter plates at 2×10^5 cells/well in 200 μl of serum-free and insulin-free N2 medium (Bottenstein and Sato, 1979 supra) containing 0.05% bovine serum albumin. After a 48 hr incubation at 37° C. in a humidified atmosphere of 5% CO2, 95% air, cultures were assayed for choline acetyltransferase activity according to a modification (McMananman et al., Dev. Bio., 25:311-320 (1988)) of the technique described by Fonnum (Fonnum, J. Neurochem. 24:405-409 (1975)).

[3] = system: cultured rat septal cells; experiment: ChAT activity in cultured rat septal cells; assay type: cell-based
Procedure: The effect of simultaneous administration of IGF-I and NGF on ChAT activity was assayed in cultured septal neurons. ChAT is the initial enzyme in the synthesis of the neurotransmitter, acetylcholine, and is a specific biochemical marker for cholinergic neurons. Assay of this enzyme may be used as an indication of the effects of IGF (and other factors) on the survival of cholinergic neurons and/or regulation of this enzyme. […] In FIG. 9 open squares represent IGF-I, diamonds indicate IGF-I+2 nM NGF, open circles indicate 2 nM NGF, and the horizontal line at 403 DPM represents uninduced cells. A similar additive effect was seen when saturating concentrations of IGF-I were combined with saturating or sub-maximal concentrations of NGF, as shown in FIG. 10. In FIG. 10 open squares indicate NGF, diamonds indicate NGF+25 nM IGF-I, open circles represent 25 nM IGF-I, and the horizontal line at 554 DPM represents uninduced cells.
Cultured rat septal cell experiments were performed generally as described in Hartikku and Hefti, J. Neuroscience, 8:2967-2985 […], Hayashi and Patel, Dev. Brain Res., 36:109-120 (1987), and as follows.
Dissociated cell cultures of the septal region of day 17 embryonic rats were prepared by standard techniques known to those skilled in the art, using enzymatic (Dispase, Collaborative Research) dissociation of tissue. Cells were seeded (plated) at 6×10^5 cells/cm^2 in poly-1-ornithine-laminin coated plastic tissue culture wells, and cultured in serum-free N2 medium (Bottenstein et al., 1978) for 5 days without feeding. Control (uninduced) cultures received no added growth factors; induced cultures received the concentrations of IGF-I and NGF indicated in FIGS. 9 and 10 at the time of plating. NGF is commercially available. ChAT was assayed by the method described in McManaman, et al. Dev. Biol. 125:311-320 (1988). AChE staining was performed according to the method of Hartikka and Hefti, J. Neuroscience 8:2967-2985 (1988).

[4] = system: fetal rat cortical neuronal cultures; experiment: Fetal rat cortical neuron survival by [3H]leucine incorporation; assay type: cell-based
Procedure: The neuronal survival promoting activity of IGF-I and IGF-II was assayed on fetal rat cortical neuranal cultures. Cerebral cortices were removed from embryonic day 18 fetal rats. Cortices were minced and treated with neutral protease (Dispase, Collaborative Research) to yield dissociated cell preparations. Cells were plated at low density (5×10^3 cells/well) onto poly-L-ornithine and laminin coated ½ area 96 well plates in 50 μl of serum and insulin-free N2 medium containing 0.05% BSA and 50 μM leucine. IGF-I or II were present from time of seeding. Control cultures received no growth factor. Cultures were incubated for 24 hr at 37° C. in an atmosphere of 5% CO2, 95% air. After 24 hrs, [^3H]leucine was added in an additional 50 μl of modified N2 medium to a final concentration of 12.5 μCi/ml. Twenty-four hours after the addition of [^3H]leucine, cultures were harvested, protein precipitated on filters with 10% trichloroacetic acid, and dried filters counted in a liquid scintillation counter. The incorporation of [^3H]leucine into cells is an accurate reflection of cell survival, since incorporated [^3H]leucine counts correlated directly with the number of surviving cells as measured by microscopic counts of cells in identical cultures.

**Q.** Which results are given for “GPETLCGAELVDALQFVCGDRGFYFNKPTGYGSSS-RRAPQTGIVDECCFRSCDLRRLEMYCAPLKPAKSA [IGF-I]”?
**A.** prevention of developmentally regulated motoneuron death (in words) (motoneurons): partially prevented developmentally regulated motoneuron death; choline acetyltransferase activity (in words) [1]: substantial, dose-dependent increase in choline acetyltransferase activity; choline acetyltransferase activity (in words) [2]: substantial, dose-dependent increase in choline acetyltransferase activity; ChAT activity % increase over control ([3]; concentration not printed (second part of table)): 44%; ChAT activity % increase over control ([3]; single growth factor 1.3 nM): 20%; ChAT activity % increase over control ([3]; single growth factor 12.5 nM): 50%; ChAT activity % increase over control ([3]; single growth factor 25.0 nM): 37%; relative potency in promoting survival of cortical neurons (in words) ([4]; IGF-I versus IGF-II): slightly more potent; survival of cortical neurons (in words) ([4]; [3H]leucine incorporation, 48 hr): promoted the survival of cortical neurons
